Data reported in patent US20240158446A1, “CYCLIC COMPOUND HAVING SELECTIVE INHIBITORY ACTION ON KRAS OVER HRAS AND NRAS” (CHUGAI SEIYAKU KABUSHIKI KAISHA, priority 2021, published 2024).
pIC50: −log10 of the molar value. *1 amine or outer side, *2 acyl side, *3 side chain or, on linkers, in order; H or OH if unused. Where a SMILES comes first, the peptide text is derived from it. Bridges are numbered along the chain shown (N, C = ends). [ ]: non-standard residue; d: D form. The star is where a group is joined. hPhe(3,5-F2-4-CF3) = N[C@@H](CCc1cc(F)c(C(F)(F)F)c(F)c1)C(=O)O; X49 = CCCN([C@@H](Cc1ccc(OCC=[*:3])cc1)C(=O)[*:2])[*:1]; NPrPhe(4-CF3) = CCCN[C@@H](Cc1ccc(C(F)(F)F)cc1)C(=O)O; X14 = CN([C@@H](CCCCC=[*:3])C(=O)[*:2])[*:1]; dαMeAlg = C[C@](CC=[*:3])(N[*:1])C(=O)[*:2]; X48 = CN([C@@H](CCC=[*:3])C(=O)[*:2])[*:1]; NMeGly(cPent) = CN[C@H](C(=O)O)C1CCCC1; Hyp = O=C(O)[C@@H]1C[C@@H](O)CN1; NMeD = CN[C@@H](CC(=O)O)C(=O)O; Morpholide = C1CN(*)CCO1; Ac5c = NC1(C(=O)O)CCCC1; Sar = CNCC(=O)O

How the values were obtained:
[1] = target: GDP-bound NRAS wild-type protein (Homo sapiens, UniProt P01111); experiment: Binding to NRAS by surface plasmon resonance (SPR), Single Cycle Kinetics; settings: SPR, GDP-bound NRAS wild-type protein vs GDP-bound KRAS wild-type protein
[2] = target: GDP-bound HRAS wild-type protein (Homo sapiens, UniProt P01112); experiment: Binding to HRAS by surface plasmon resonance (SPR), Single Cycle Kinetics; settings: SPR, GDP-bound HRAS wild-type protein vs GDP-bound KRAS wild-type protein
[3] = test system: human lung cancer strain NCI-H441;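 note: cell proliferation inhibition after four days measured by CellTiter-Glo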

Chain of GDP-bound HRAS wild-type protein (P01112 whole entry): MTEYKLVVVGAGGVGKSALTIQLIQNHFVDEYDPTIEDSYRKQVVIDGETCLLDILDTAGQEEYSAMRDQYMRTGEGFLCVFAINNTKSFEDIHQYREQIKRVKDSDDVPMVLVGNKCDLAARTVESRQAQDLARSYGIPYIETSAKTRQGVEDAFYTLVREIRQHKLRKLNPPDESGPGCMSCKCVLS
Chain of GDP-bound NRAS wild-type protein (P01111 whole entry): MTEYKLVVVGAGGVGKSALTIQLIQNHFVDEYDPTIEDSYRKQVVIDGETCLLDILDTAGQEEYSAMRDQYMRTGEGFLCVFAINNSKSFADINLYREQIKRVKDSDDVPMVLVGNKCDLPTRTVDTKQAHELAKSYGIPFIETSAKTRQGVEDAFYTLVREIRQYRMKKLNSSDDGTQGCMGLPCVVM

Compound | NRAS/KRAS (ratio of KD value for NRAS to KD value for KRAS) [1] | HRAS/KRAS (ratio of KD value for HRAS to KD value for KRAS) [2] | pIC50 [3]
CCO[C@@H]1C[C@H]2C(=O)NC3(CCC3)C(=O)N(C)[C@@H](C3CCCC3)C(=O)N(C)[C@H](C(=O)N3CCOCC3)CC(=O)N(C)[C@@H](Cc3cccc(F)c3)C(=O)N[C@@H]([C@@H](C)CC)C(=O)N(C)CC(=O)N(C)[C@H]3CCCCCN(C3=O)[C@@H](Cc3ccc(C(F)(F)F)cc3)C(=O)N(C)CC(=O)N[C@@H](CCc3cc(F)c(C(F)(F)F)c(F)c3)C(=O)N2C1 [PP0856] | B (a compound having 3 or more and less than 10 is denoted as B) | B (a compound having 3 or more and less than 10 is denoted as B) | 7.18
CCO[C@@H]1C[C@H]2C(=O)NC3(CCC3)C(=O)N(C)[C@@H](C3CCCC3)C(=O)N(C)[C@H](C(=O)N(C)C)CC(=O)N(C)[C@@H](CC)C(=O)N[C@@H]([C@@H](C)CC)C(=O)N(C)CC(=O)N(C)[C@H]3CCCCN(C3=O)[C@@H](Cc3ccc(C(F)(F)F)cc3)C(=O)N(C)CC(=O)N[C@@H](CCc3ccc4ccsc4c3)C(=O)N2C1 [PP0888] | C (A compound having a KD ratio of 0.1 or more and less than 3 is denoted as C) | B (a compound having 3 or more and less than 10 is denoted as B) | 7.59
CCCN1C(=O)CN(C)C(=O)CN(C)C(=O)[C@H]([C@@H](C)CC)NC(=O)[C@@H]2COCCCC[C@@](C)(NC(=O)[C@@H]3C[C@@H](OCC)CN3C(=O)[C@H](CCc3cc(F)c(C(F)(F)F)c(F)c3)NC(=O)CN(C)C(=O)[C@@H]1Cc1ccc(C(F)(F)F)cc1)C(=O)N(C)[C@@H](C1CCCC1)C(=O)N(C)[C@H](C(=O)N1CCOCC1)CC(=O)N2C [PP0899] | A (a compound having 10 or more and less than 20 is denoted as A) | B (a compound having 3 or more and less than 10 is denoted as B) | 6.03
CCCN1C(=O)CN(C)C(=O)CN(C)C(=O)[C@H]([C@@H](C)CC)NC(=O)[C@@H]2CCC=CCOc3ccc(cc3)C[C@H]1C(=O)N(C)CC(=O)N[C@@H](CCc1cc(F)c(C(F)(F)F)c(F)c1)C(=O)N1C[C@H](OCC)C[C@H]1C(=O)NC1(CCCC1)C(=O)N(C)[C@@H](C1CCCC1)C(=O)N(C)[C@H](C(=O)N(C)C)CC(=O)N2C [PP0900] ([X48]I[Sar][Sar][X49][Sar][hPhe(3,5-F2-4-CF3)][Hyp](Et)[Ac5c][NMeGly(cPent)][NMeD]-NMe2; staple 1-5; lactam N-11) | C (A compound having a KD ratio of 0.1 or more and less than 3 is denoted as C) | C (A compound having a KD ratio of 0.1 or more and less than 3 is denoted as C) | 8.31
CCCN1C(=O)CN(C)C(=O)CN(C)C(=O)[C@H]([C@@H](C)CC)NC(=O)[C@@H]2CCCCC=CC[C@@](C)(NC(=O)[C@@H]3C[C@@H](OCC)CN3C(=O)[C@H](CCc3cc(F)c(C(F)(F)F)c(F)c3)NC(=O)CN(C)C(=O)[C@@H]1Cc1ccc(C(F)(F)F)cc1)C(=O)N(C)[C@@H](C1CCCC1)C(=O)N(C)[C@H](C(=O)N1CCOCC1)CC(=O)N2C [PP0902] ([X14]I[Sar][Sar][NPrPhe(4-CF3)][Sar][hPhe(3,5-F2-4-CF3)][Hyp](Et)[dαMeAlg][NMeGly(cPent)][NMeD]-Morpholide; staple 1-9; lactam N-11) | A (a compound having 10 or more and less than 20 is denoted as A) | B (a compound having 3 or more and less than 10 is denoted as B) | 7.14
CCO[C@@H]1C[C@H]2C(=O)NC3(CCC3)C(=O)N(C)[C@@H](C3CCCC3)C(=O)N(C)[C@H](C(=O)N(C)C)CC(=O)N(C)[C@@H](CC)C(=O)N[C@@H]([C@@H](C)CC)C(=O)N(C)CC(=O)N(C)[C@H]3CCCCCN(C3=O)[C@@H](Cc3ccc(F)c(F)c3)C(=O)N(C)CC(=O)N[C@@H](CCc3cc(F)c(C(F)(F)F)c(F)c3)C(=O)N2C1 [PP0907] | B (a compound having 3 or more and less than 10 is denoted as B) | B (a compound having 3 or more and less than 10 is denoted as B) | 7.61
CCO[C@@H]1C[C@H]2C(=O)NC3(CCC3)C(=O)N(C)[C@@H](C3CCCC3)C(=O)N(C)[C@H](C(=O)N(C)C)CC(=O)N(C)[C@@H](CC)C(=O)N[C@@H]([C@@H](C)CC)C(=O)N(C)CC(=O)N(C)[C@H]3CCCCCN(C3=O)[C@@H](Cc3ccc(F)cc3Cl)C(=O)N(C)CC(=O)N[C@@H](CCc3cc(F)c(C(F)(F)F)c(F)c3)C(=O)N2C1 [PP0908] | B (a compound having 3 or more and less than 10 is denoted as B) | B (a compound having 3 or more and less than 10 is denoted as B) | 7.41
CCO[C@@H]1C[C@H]2C(=O)NC3(CCC3)C(=O)N(C)[C@@H](C3CCCC3)C(=O)N(C)[C@H](C(=O)N(C)C)CC(=O)N(C)[C@@H](CC)C(=O)N[C@@H]([C@@H](C)CC)C(=O)N(C)CC(=O)N(C)[C@H]3CCCCCN(C3=O)[C@@H](Cc3ccc(F)c(C)c3)C(=O)N(C)CC(=O)N[C@@H](CCc3cc(F)c(C(F)(F)F)c(F)c3)C(=O)N2C1 [PP0912] | B (a compound having 3 or more and less than 10 is denoted as B) | B (a compound having 3 or more and less than 10 is denoted as B) | 7.39
CCO[C@@H]1C[C@H]2C(=O)NC3(CCC3)C(=O)N(C)[C@@H](C3CCCC3)C(=O)N(C)[C@H](C(=O)N(C)C)CC(=O)N(C)[C@@H](CC)C(=O)N[C@@H]([C@@H](C)CC)C(=O)N(C)CC(=O)N(C)[C@H]3CCCCCN(C3=O)[C@@H](Cc3nccs3)C(=O)N(C)CC(=O)N[C@@H](CCc3cc(F)c(C(F)(F)F)c(F)c3)C(=O)N2C1 [PP0913] | B (a compound having 3 or more and less than 10 is denoted as B) | B (a compound having 3 or more and less than 10 is denoted as B) | 6.69
CCO[C@@H]1C[C@H]2C(=O)NC3(CCC3)C(=O)N(C)[C@@H](C3CCCC3)C(=O)N(C)[C@H](C(=O)N3CCOCC3)CC(=O)N(C)[C@@H](CC(C)C)C(=O)N[C@@H]([C@@H](C)CC)C(=O)N(C)CC(=O)N(C)[C@H]3CCCCCN(C3=O)[C@@H](Cc3ccc(F)c(F)c3)C(=O)N(C)CC(=O)N[C@@H](CCc3cc(F)c(C(F)(F)F)c(F)c3)C(=O)N2C1 [PP0917] | B (a compound having 3 or more and less than 10 is denoted as B) | B (a compound having 3 or more and less than 10 is denoted as B) | 7.60
CCO[C@@H]1C[C@H]2C(=O)NC3(CCC3)C(=O)N(C)[C@@H](C3CCCC3)C(=O)N(C)[C@H](C(=O)N3CCOCC3)CC(=O)N(C)[C@@H](CC(C)C)C(=O)N[C@@H]([C@@H](C)CC)C(=O)N(C)CC(=O)N(C)[C@H]3CCCCCN(C3=O)[C@@H](Cc3nccs3)C(=O)N(C)CC(=O)N[C@@H](CCc3cc(F)c(C(F)(F)F)c(F)c3)C(=O)N2C1 [PP0923] | B (a compound having 3 or more and less than 10 is denoted as B) | B (a compound having 3 or more and less than 10 is denoted as B) | 6.35
CCCN1C(=O)CN(C)C(=O)CN(C)C(=O)[C@H]([C@@H](C)CC)NC(=O)[C@@H]2CCCCCCC[C@@H](NC(=O)[C@@H]3C[C@@H](OCC)CN3C(=O)[C@H](CCc3cc(F)c(C(F)(F)F)c(F)c3)NC(=O)CN(C)C(=O)[C@@H]1Cc1ccc(C(F)(F)F)cc1)C(=O)N(C)[C@@H](C1CCCC1)C(=O)N(C)[C@H](C(=O)N(C)C)CC(=O)N2C [PP0925] | A (a compound having 10 or more and less than 20 is denoted as A) | B (a compound having 3 or more and less than 10 is denoted as B) | 7.04
CCO[C@@H]1C[C@H]2C(=O)NC3(CCC3)C(=O)N(C)[C@@H](C3CCCC3)C(=O)N(C)[C@H](C(=O)N(C)C)CC(=O)N(C)[C@@H](Cc3ccccc3C)C(=O)N[C@@H]([C@@H](C)CC)C(=O)N(C)CC(=O)N(C)[C@H]3CCCCCN(C3=O)[C@@H](Cc3ccc(C(F)(F)F)cc3)C(=O)N(C)CC(=O)N[C@@H](CCc3cc(F)c(C(F)(F)F)c(F)c3)C(=O)N2C1 [PP0941] | B (a compound having 3 or more and less than 10 is denoted as B) | B (a compound having 3 or more and less than 10 is denoted as B) | 7.19
CC[C@H](C)[C@@H]1NC(=O)[C@H](CC(C)C)N(C)C(=O)C[C@@H](C(=O)N2CCOCC2)N(CC)C(=O)[C@H](C2CCCC2)N(C)C(=O)C2(CCC2)NC(=O)[C@@H]2CC(F)(F)CN2C(=O)[C@H](CCc2cc(F)c(C(F)(F)F)c(F)c2)NC(=O)CN(C)C(=O)[C@H](Cc2ccc(C(F)(F)F)cc2)N2CCCCC[C@@H](C2=O)N(C)C(=O)CN(C)C1=O [PP0954] | A (a compound having 10 or more and less than 20 is denoted as A) | A (a compound having 10 or more and less than 20 is denoted as A) | 6.36
